{"source": "patent US20030232851A1", "about": "“Viral treatment” (The Procter & Gamble Company, priority 1999, published 2003)", "assay_type_in_all_cases": "cell-based", "key": {"[1]": {"test_system": "HIV-1 cell line, U937IIIB", "test": "Long term in vitro study, U937IIIB, reverse transcriptase", "design": "reverse transcriptase data: unit not given here", "method": "A microtiter-based reveres transcriptase (RT) reaction is utilized (Buckheit et al (1991) AIDS Research and Human Retroviruses 7:295-302). Tritiated thymidine triphosphate (NEN)(TTP) is resuspended in distilled water at 5 Ci/ml. Poly rA and oligo dT are prepared as a stock solution which is kept at −20° C. The RT reaction buffer is prepared fresh on a daily basis and consists of 125 μl 1M EGTA, 125 μl water, 125 μl Triton X-100, 50 μl Tris (pH 7.4), 50 μl 1 MDDT, and 40 μl 1M MgCl2. These three solutions are mixed together in a ratio of 1 part TTP, 2.5 parts poly rA:oligo dT, 2.5 parts reaction buffer and 4 parts distilled water. Ten microliters of this reaction mixture is placed in a round bottom microtiter place and 15 μl of virus containing supernatant is added and mixed. The plate is incubated at 37° C. for 60 minutes. Following reaction, the reaction volume is spotted onto filter mats, washed 6 times for 5 minutes each in a 5% sodium phosphate buffer, 2 times for 1 minute each in distilled water, 2 times for 1 minute each in 70% ethanol, and then dried. The dried filter mat is placed in a plastic sample bag, Betaplate scintillation fluid is added and the bag is heat sealed. Incorporated radioactivity is quantified utilizing a Wallac Microbeta scintillation counter.\nAcute infection of most established human cell lines with HIV-1 results in the eventual establishment of a constitutive virus-producing chronically infected cell line. The cells can be passaged for long periods of time in culture without loss of virus production. These cells may be utilized to evaluate the effects of anti-HIV compounds on syncytium formation or to evaluate the effects of anti-HIV compounds on levels of virus production from these cells. […] Each of the cells contains an integrated HIV genome or provirus. Chronically infected CEM, H9 and U937 cell lines have been prepared and cultured by Southern Research Institute, Frederick Md. and are available from them.\nCEM-SS cells chronically infected with HIV isolate, for example SKI (CEM-SKI) are cultured in RPMI1640 tissue culture medium supplemented with 10% fetal bovine serum and antibiotics. […] CEM-SKI or other infected cells with no added drug are used as the control cells. Cells are allowed to grow to a density of approximately 1×10^6 cells/ml and are then passaged at a 1:10 dilution. […] The drug concentration in the flask is then increased two-fold and the cells maintained as above.\nThe cell populations contain integrated copies of the HIV genome and constitutively produce HIV at relatively high levels or are latently infected and only produce virus after stimulation with phorbol esters, tumor necrosis factor or IL6 (U1 and ACH2). Reductions in virus products were observed when quantifying supernatant reverse transcriptase activity,\nA long term in vitro study of 2-(2-thienyl)-imidazolo [4,5-b]pyridine against an HIV-1 cell line, U9371IIIB was conducted at three different levels. The results with U937IIIB cells were reported at weekly intervals."}, "Curvularia lunata": {"test_system": "Curvularia lunata", "test": "Anti-fungal activity (NCCLS M-27A based), Curvularia lunata", "method": "It was active against cryptococcus neoformans and curvularai lunata. The cidal activity for the C. neoformans is high enough that it is clear […] against this yeast. This test was conducted using a method based upon NCCLS reference method M-27A published in 1997. Solvent, medium and growth controls were set-up with the tests. Once these were read to validate the test performance, the QC fungi were read to insure they had expected results. These steps validated the test system. DMSO was used as a drug-chemical solvent. […] The 90% cut-off is necessary for azoles, which are static and not cidal. The FMC or cidal level was determined by sub-culturing a sample from each tube showing no growth."}, "[2]": {"test_system": "HHV8 cell line, TPA-induced BCBL-1 cells", "test": "Kaposi's Sarcoma (HHV8) in vitro test, DNA copy number", "method": "The DNA copy number and the toxicity value were measured and compared with Cidofovir."}}, "note": "“And” between values parts separate entries of the source, which are not always exact repeats. Equal entries are not always repeated.", "data": [{"smiles": "c1csc(-c2nc3cccnc3[nH]2)c1", "note": "[2-(2-thienyl)-imidazolo [4,5-b]pyridine]", "values": [{"measurement": "reverse transcriptase data", "setting": "[1]; 7 μg/ml, day 4", "value": 2100}, {"measurement": "reverse transcriptase data", "setting": "[1]; 7 μg/ml, day 11", "value": 2205}, {"measurement": "reverse transcriptase data", "setting": "[1]; 7 μg/ml, day 18", "value": 2245}, {"measurement": "reverse transcriptase data", "setting": "[1]; 7 μg/ml, day 25", "value": 2212}, {"measurement": "reverse transcriptase data", "setting": "[1]; 7 μg/ml, day 32", "value": 2347}, {"measurement": "reverse transcriptase data", "setting": "[1]; 7 μg/ml, day 39", "value": 2516}, {"measurement": "reverse transcriptase data", "setting": "[1]; 7 μg/ml, day 46", "value": 1968}, {"measurement": "reverse transcriptase data", "setting": "[1]; 7 μg/ml, day 53", "value": 1695}, {"measurement": "reverse transcriptase data", "setting": "[1]; 7 μg/ml, day 60", "value": 2887}, {"measurement": "reverse transcriptase data", "setting": "[1]; 7 μg/ml, day 67", "value": 4170}, {"measurement": "reverse transcriptase data", "setting": "[1]; 7 μg/ml, day 71", "value": 7786}, {"measurement": "reverse transcriptase data", "setting": "[1]; 7 μg/ml, day 74", "value": 6119}, {"measurement": "reverse transcriptase data", "setting": "[1]; 7 μg/ml, day 88", "value": 6880}, {"measurement": "reverse transcriptase data", "setting": "[1]; 7 μg/ml, day 95", "value": 5041}, {"measurement": "reverse transcriptase data", "setting": "[1]; 7 μg/ml, day 102", "value": 5072}, {"measurement": "reverse transcriptase data", "setting": "[1]; 7 μg/ml, day 109", "value": 7437}, {"measurement": "reverse transcriptase data", "setting": "[1]; 15 μg/ml, day 4", "value": 1188}, {"measurement": "reverse transcriptase data", "setting": "[1]; 15 μg/ml, day 11", "value": 713}, {"measurement": "reverse transcriptase data", "setting": "[1]; 15 μg/ml, day 18", "value": 993}, {"measurement": "reverse transcriptase data", "setting": "[1]; 15 μg/ml, day 25", "value": 1900}, {"measurement": "reverse transcriptase data", "setting": "[1]; 15 μg/ml, day 32", "value": 2003}, {"measurement": "reverse transcriptase data", "setting": "[1]; 15 μg/ml, day 39", "value": 1326}, {"measurement": "reverse transcriptase data", "setting": "[1]; 15 μg/ml, day 46", "value": 987}, {"measurement": "reverse transcriptase data", "setting": "[1]; 15 μg/ml, day 53", "value": 1221}, {"measurement": "reverse transcriptase data", "setting": "[1]; 15 μg/ml, day 60", "value": 1205}, {"measurement": "reverse transcriptase data", "setting": "[1]; 15 μg/ml, day 67", "value": 2314}, {"measurement": "reverse transcriptase data", "setting": "[1]; 15 μg/ml, day 71", "value": 4265}, {"measurement": "reverse transcriptase data", "setting": "[1]; 15 μg/ml, day 74", "value": 5689}, {"measurement": "reverse transcriptase data", "setting": "[1]; 15 μg/ml, day 88", "value": 6832}, {"measurement": "reverse transcriptase data", "setting": "[1]; 15 μg/ml, day 95", "value": 4988}, {"measurement": "reverse transcriptase data", "setting": "[1]; 15 μg/ml, day 102", "value": 3912}, {"measurement": "reverse transcriptase data", "setting": "[1]; 15 μg/ml, day 109", "value": 4294}, {"measurement": "reverse transcriptase data", "setting": "[1]; 30 μg/ml, day 4", "value": 996}, {"measurement": "reverse transcriptase data", "setting": "[1]; 30 μg/ml, day 11", "value": 180}, {"measurement": "reverse transcriptase data", "setting": "[1]; 30 μg/ml, day 18", "value": 417}, {"measurement": "reverse transcriptase data", "setting": "[1]; 30 μg/ml, day 25", "value": 588}, {"measurement": "reverse transcriptase data", "setting": "[1]; 30 μg/ml, day 32", "value": 716}, {"measurement": "reverse transcriptase data", "setting": "[1]; 30 μg/ml, day 39", "value": 625}, {"measurement": "reverse transcriptase data", "setting": "[1]; 30 μg/ml, day 46", "value": 542}, {"measurement": "reverse transcriptase data", "setting": "[1]; 30 μg/ml, day 53", "value": 208}, {"measurement": "reverse transcriptase data", "setting": "[1]; 30 μg/ml, day 60", "value": 504}, {"measurement": "reverse transcriptase data", "setting": "[1]; 30 μg/ml, day 67", "value": 782}, {"measurement": "reverse transcriptase data", "setting": "[1]; 30 μg/ml, day 71", "value": 1414}, {"measurement": "reverse transcriptase data", "setting": "[1]; 30 μg/ml, day 74", "value": 1059}, {"measurement": "reverse transcriptase data", "setting": "[1]; 30 μg/ml, day 88", "value": 1811}, {"measurement": "reverse transcriptase data", "setting": "[1]; 30 μg/ml, day 95", "value": 1988}, {"measurement": "reverse transcriptase data", "setting": "[1]; 30 μg/ml, day 102", "value": 1695}, {"measurement": "reverse transcriptase data", "setting": "[1]; 30 μg/ml, day 109", "value": 1542}, {"measurement": "reverse transcriptase data on continuation (in words)", "setting": "[1]; run through 242 days", "value": "data remained consistent"}, {"measurement": "MIC", "setting": "Curvularia lunata; Curvularia lunata, growth inhibited or reduced at least 90%", "value": 0.03, "unit": "µg/mL"}, {"measurement": "activity against Curvularia lunata (in words)", "setting": "Curvularia lunata; in vitro", "value": "active"}, {"measurement": "DNA Copy Number, % virus control", "setting": "[2]; 0.64 μM", "value": 97.2, "unit": "%"}, {"measurement": "DNA Copy Number, average", "setting": "[2]; 0.64 μM", "value": 14122.1, "unit": "per 3 μl"}, {"measurement": "DNA Copy Number, samples 1-3", "setting": "[2]; 0.64 μM", "value": "16524.7 per 3 μl and 16524.9 per 3 μl and 12316.8 per 3 μl"}, {"measurement": "DNA Copy Number, % virus control", "setting": "[2]; 2 μM", "value": 94.0, "unit": "%"}, {"measurement": "DNA Copy Number, average", "setting": "[2]; 2 μM", "value": 13653.8, "unit": "per 3 μl"}, {"measurement": "DNA Copy Number, samples 1-3", "setting": "[2]; 2 μM", "value": "13427.5 per 3 μl and 11819.4 per 3 μl and 15714.5 per 3 μl"}, {"measurement": "DNA Copy Number, % virus control", "setting": "[2]; 6.4 μM", "value": 95.5, "unit": "%"}, {"measurement": "DNA Copy Number, average", "setting": "[2]; 6.4 μM", "value": 13876.4, "unit": "per 3 μl"}, {"measurement": "DNA Copy Number, samples 1-3", "setting": "[2]; 6.4 μM", "value": "11795.6 per 3 μl and 15297.5 per 3 μl and 14536.1 per 3 μl"}, {"measurement": "DNA Copy Number, % virus control", "setting": "[2]; 20 μM", "value": 77.9, "unit": "%"}, {"measurement": "DNA Copy Number, average", "setting": "[2]; 20 μM", "value": 11321.8, "unit": "per 3 μl"}, {"measurement": "DNA Copy Number, % virus control", "setting": "[2]; 64 μM", "value": 2.9, "unit": "%"}, {"measurement": "DNA Copy Number, average", "setting": "[2]; 64 μM", "value": 427.3, "unit": "per 3 μl"}, {"measurement": "DNA Copy Number, % virus control", "setting": "[2]; 200 μM", "value": 13.9, "unit": "%"}, {"measurement": "DNA Copy Number, average", "setting": "[2]; 200 μM", "value": 2020.8, "unit": "per 3 μl"}, {"measurement": "DNA Copy Number, samples 1-3", "setting": "[2]; 200 μM", "value": "1680.4 per 3 μl and 2041.2 per 3 μl and 2340.8 per 3 μl"}, {"measurement": "IC50", "setting": "[2]; Human gammaherpesvirus 8, BCBL1", "value": 36.4, "unit": "µM"}]}]}
